Patent publication US9409952B2, “Peptide-compound cyclization method” (Chugai Seiyaku Kabushiki Kaisha, priority 2011, dated 2016)
Like-named read-outs stand apart in the source and are kept apart here. Positions of bridges follow the written chain, without caps; N, C: chain ends. Non-standard residues stand in square brackets, D forms with d. Residues, ends and D or L forms follow the SMILES beside them. *: point of attachment. Arg(Me2s) = CN=C(NC)NCCC[C@H](N)C(=O)O; NMeF = CN[C@@H](Cc1ccccc1)C(=O)O; 3Pal = N[C@@H](Cc1cccnc1)C(=O)O; NMeL = CN[C@@H](CC(C)C)C(=O)O; NMeA = CN[C@@H](C)C(=O)O; Piperidide = C1CCN(*)CC1; Sar = CNCC(=O)O

Columns and labels:
[1] = PAMPA (parallel artificial membrane permeability assay); format: in vitro ADME; conditions: PAMPA
Method in brief: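 Artificial membrane was 10% (w/v) egg lecithin plus 0.5% (w/v) cholesterol in dodecane on a PVDF filter. A 10 mM DMSO stock was added at 0.5% (v/v) to donor buffer (50 mM MOPSO, pH 6.5, 5.0% glycocholic acid). After 18 h at 37 °C, LC/MS or LC/UV gave donor and acceptor levels for Pe.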

[2] = Metabolic stability in human hepatic microsome; format: in vitro ADME; conditions: microsomes
[3] = membrane permeation rate (Pe), 50 mM MOPSO buffer pH 6.5 with 5.0% glycocholic acid, 37° C., 18 hours, read-out: iPAMPA Pe
[4] = pH 7.4, human hepatic microsome, NADPH(+), read-out: CL NADPH(+)

SMILES | Papp at 18 hours, 50 µM [1, 3] | microsomal CLint at 1 uM [2, 4] | Papp at 18 hours, 50 µM ([1]; pH 6.5) | microsomal CLint at 1 uM ([2]; human, pH 7.4, CL NADPH(+))
CC[C@H](C)[C@H](NC(=O)[C@H](C)N(C)C(=O)[C@@H]1CC(=O)N[C@H](C(C)C)C(=O)N(C)[C@@H](C)C(=O)N(C)[C@@H](CC(C)C)C(=O)N(C)[C@@H](CC(C)C)C(=O)N(C)CC(=O)N(C)[C@@H](Cc2ccccc2)C(=O)N[C@@H](C)C(=O)N(C)[C@@H](Cc2ccccc2)C(=O)N(C)[C@@H](CC(C)C)C(=O)N[C@@H]([C@@H](C)O)C(=O)N1)C(=O)N1CCCCC1 [DP-584] ([dV][NMeA][NMeL][NMeL][Sar][NMeF]A[NMeF][NMeL]TD[NMeA]I-Piperidide; lactam N-11) | 18 ×10⁻⁶ cm/s | 20 µL/min/mg | – | –
CC(C)C[C@H]1C(=O)N[C@@H](C(C)C)C(=O)N(C)[C@@H](CC(C)C)C(=O)N(C)[C@@H](CC(C)C)C(=O)N[C@H](C(=O)N(C)[C@@H](Cc2ccccc2)C(=O)N[C@@H](C)C(=O)N2CCCCC2)CC(=O)N[C@H](C(C)C)C(=O)N(C)[C@@H](CC(C)C)C(=O)N(C)[C@@H](Cc2ccccc2)C(=O)N(C)[C@@H](CC(C)C)C(=O)N[C@@H](Cc2c[nH]cn2)C(=O)N1C [DP-586] ([dV][NMeL][NMeF][NMeL]H[NMeL]V[NMeL][NMeL]D[NMeF]A-Piperidide; lactam N-10) | 0.44 ×10⁻⁶ cm/s | 15 µL/min/mg | – | –
CC(C)C[C@H]1C(=O)N(C)[C@@H](CC(C)C)C(=O)N[C@H](C(=O)N(C)[C@@H](Cc2ccccc2)C(=O)N[C@@H](C)C(=O)N2CCCCC2)CC(=O)N[C@H](C(C)C)C(=O)N(C)[C@@H](C)C(=O)N(C)[C@@H](Cc2ccccc2)C(=O)N(C)[C@@H](CC(C)C)C(=O)N[C@@H](Cc2cccnc2)C(=O)N(C)CC(=O)N[C@@H](C)C(=O)N1C [DP-591] ([dV][NMeA][NMeF][NMeL][3Pal][Sar]A[NMeL][NMeL]D[NMeF]A-Piperidide; lactam N-10) | 26 ×10⁻⁶ cm/s | 15 µL/min/mg | – | –
CC(C)C[C@@H]1NC(=O)[C@H](Cc2c[nH]cn2)NC(=O)[C@H](Cc2ccccc2)N(C)C(=O)[C@H](CC(C)C)NC(=O)[C@H](CC(C)C)N(C)C(=O)[C@H](Cc2ccccc2)NC(=O)[C@H](CC(C)C)N(C)C(=O)[C@H](CC(C)C)N(C)C(=O)[C@H](Cc2ccccc2)NC(=O)CN(C)C(=O)C[C@@H](C(=O)N(C)[C@@H](Cc2ccccc2)C(=O)N[C@@H](C)C(=O)N2CCCCC2)NC1=O [DP-592] ([Sar]F[NMeL][NMeL]F[NMeL]L[NMeF]HLD[NMeF]A-Piperidide; lactam N-11) | 0.18 ×10⁻⁶ cm/s | 5 µL/min/mg | – | –
CC(C)C[C@@H]1NC(=O)[C@H](CCC(=O)O)NC(=O)[C@@H]2CCCN2C(=O)[C@H](CC(C)C)NC(=O)[C@H](CC(C)C)N(C)C(=O)[C@H](Cc2ccccc2)NC(=O)[C@H](C)N(C)C(=O)[C@H](CC(C)C)N(C)C(=O)[C@H](Cc2ccccc2)NC(=O)CN(C)C(=O)C[C@@H](C(=O)N(C)[C@@H](Cc2ccccc2)C(=O)N[C@@H](C)C(=O)N2CCCCC2)NC1=O [DP-595] ([Sar]F[NMeL][NMeA]F[NMeL]LPELD[NMeF]A-Piperidide; lactam N-11) | – | – | 4.9 ×10⁻⁶ cm/s | 9 µL/min/mg
C/N=C(\NC)NCCC[C@@H]1NC(=O)[C@@H]2CCCN2C(=O)[C@H](CC(C)C)NC(=O)[C@H](CC(C)C)N(C)C(=O)[C@H](Cc2ccccc2)NC(=O)CN(C)C(=O)[C@H](CC(C)C)N(C)C(=O)[C@H](Cc2ccccc2)NC(=O)CN(C)C(=O)C[C@@H](C(=O)N(C)[C@@H](Cc2ccccc2)C(=O)N[C@@H](C)C(=O)N2CCCCC2)NC(=O)[C@H](CC(C)C)NC1=O [DP-597] ([Sar]F[NMeL][Sar]F[NMeL]LP[Arg(Me2s)]LD[NMeF]A-Piperidide; lactam N-11) | – | – | 1.7 ×10⁻⁶ cm/s | 12 µL/min/mg
